Broadly, the IC50 is the concentration at which inhibition is half-maximal.

Structures can show the parent of a compound that is named as a salt.

These results are taken from patent US20150031668A1, “CHROMAN DERIVATIVES AS TRPM8 INHIBITORS” (AMGEN INC., priority 2013, published 2015).

T1 sequence (Q7Z2W7 whole entry): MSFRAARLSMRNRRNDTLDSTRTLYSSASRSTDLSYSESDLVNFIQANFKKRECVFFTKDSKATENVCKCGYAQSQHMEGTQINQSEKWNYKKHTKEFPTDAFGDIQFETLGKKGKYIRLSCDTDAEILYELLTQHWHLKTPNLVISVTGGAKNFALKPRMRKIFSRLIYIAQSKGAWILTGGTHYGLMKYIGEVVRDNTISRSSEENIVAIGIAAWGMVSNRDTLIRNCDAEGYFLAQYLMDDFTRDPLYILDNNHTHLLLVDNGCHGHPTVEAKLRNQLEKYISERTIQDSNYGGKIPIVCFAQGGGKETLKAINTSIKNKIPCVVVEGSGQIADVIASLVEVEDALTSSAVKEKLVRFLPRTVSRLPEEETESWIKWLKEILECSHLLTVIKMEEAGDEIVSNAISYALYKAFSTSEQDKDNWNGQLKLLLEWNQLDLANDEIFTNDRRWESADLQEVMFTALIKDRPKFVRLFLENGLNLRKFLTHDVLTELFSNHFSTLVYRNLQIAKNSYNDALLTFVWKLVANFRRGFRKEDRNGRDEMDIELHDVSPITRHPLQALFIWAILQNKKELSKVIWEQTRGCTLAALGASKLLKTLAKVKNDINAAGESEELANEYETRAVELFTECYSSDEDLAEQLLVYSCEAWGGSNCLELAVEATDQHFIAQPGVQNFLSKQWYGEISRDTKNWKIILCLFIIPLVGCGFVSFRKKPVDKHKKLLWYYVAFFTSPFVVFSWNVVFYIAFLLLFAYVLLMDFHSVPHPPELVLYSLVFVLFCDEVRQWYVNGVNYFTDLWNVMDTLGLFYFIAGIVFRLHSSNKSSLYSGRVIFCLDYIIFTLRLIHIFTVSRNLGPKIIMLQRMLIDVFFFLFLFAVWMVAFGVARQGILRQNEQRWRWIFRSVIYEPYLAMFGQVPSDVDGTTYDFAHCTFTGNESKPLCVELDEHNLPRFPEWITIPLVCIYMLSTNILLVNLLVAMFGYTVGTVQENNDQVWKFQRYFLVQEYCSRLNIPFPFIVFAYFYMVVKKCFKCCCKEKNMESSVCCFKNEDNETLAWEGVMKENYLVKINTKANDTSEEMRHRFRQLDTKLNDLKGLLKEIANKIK

This test has as its target T1, human TRPM8 (Homo sapiens, UniProt Q7Z2W7).
T1 construct: expressed in transfected cells; host or cells: Chinese hamster ovary (CHO) cells, T-REx tetracycline-inducible expression system (Invitrogen); co-transfected with pcDNA3.1 aequorin
Kind of test: Luminescence readout assay for measuring intracellular calcium (aequorin, CHO cells expressing human TRPM8; icilin, L-menthol or cold activation). The format is cell-based. The conditions noted are these: CHO cells expressing human TRPM8, icilin activation (1 μM), aequorin luminescence; read-out: hTRPM8 IC50. As for the experimental part: Luminescence Readout Assay for Measuring Intracellular Calcium
A stable Chinese hamster ovary cell line expressing human TRPM8 was generated using tetracycline inducible T-REx™ expression system from Invitrogen, Inc. (Carlsbad, Calif.). […] Twenty four hours before the assay, cells were seeded in 96-well plates and TRPM8 expression was induced with 0.5 μg/ml tetracycline. On the day of the assay, culture media was removed and cells were incubated with assay buffer
Potential antagonists were added 2.5 min prior to the addition of agonist, 1 μM icilin, 100 μM L-menthol, or 1 min prior to the addition of cold buffer (<10° C.). The luminescence was measured by a CCD camera based FLASH-luminometer built by Amgen, Inc. A cooling device attached to FLASH luminometer was used for cold activation.
Consider `O=C(N[C@]1(c2ccc(OC(F)(F)F)cc2)CCOc2cccnc21)c1c[nH]c2ccccc12` [Example 234, (S)-N-(4-(4-(trifluoromethoxy)phenyl)-3,4-dihydro-2H-pyrano[3,2-b]pyridin-4-yl)-1H-indole-3-carboxamide foraiate], for which the IC50 worked out at 0.0568 µM.

Regarding `COC(=O)c1cc2ccc(C(=O)N[C@]3(c4ccc(OC(F)(F)F)c(F)c4)CCOc4cccnc43)cc2n1C` [Example 196, (S)-methyl 6-((4-(3-fluoro-4-(trifluoromethoxy)phenyl)-3,4-dihydro-2H-pyrano[3,2-b]pyridin-4-yl)carbamoyl)-1-methyl-1H-indole-2-carboxylate], the IC50 stood at 0.007 µM.

Turning to `CC(C)(C)[S@@+]([O-])N[C@]1(c2ccc(OC(F)(F)F)c(F)c2)CCOc2cccnc21` [Example 152, (R)—N—((S)-4-(3-fluoro-4-(trifluoromethoxy)phenyl)-3,4-dihydro-2H-pyrano[3,2-b]pyridin-4-yl)-2-methylpropane-2-sulfinamide], the IC50 is 2.4 µM.

For the molecule `O=C(N[C@]1(c2ccc(OC(F)(F)F)cc2)CCOc2cccnc21)c1nccc2ccccc12` [Example 247, (S)-N-(4-(4-(trifluoromethoxy)phenyl)-3,4-dihydro-2H-pyrano[3,2-b]pyridin-4-yl)isoquinoline-1-carboxamide formate], the IC50 was found to be 0.03 µM.

As to `Cn1ncc2cc(C(=O)N[C@]3(c4ccc(OC(F)(F)F)cc4)CCOc4cccnc43)ccc21` [Example 262, (S)-1-methyl-N-(4-(4-(trifluoromethoxy)phenyl)-3,4-dihydro-2H-pyrano[3,2-b]pyridin-4-yl)-1H-indazole-5-carboxamide formate], the IC50 was determined as 0.007 µM.

For the molecule `O=C(N[C@]1(c2ccc(F)c(C(F)(F)F)c2)CCOc2cccnc21)c1ccc(=O)[nH]c1` [Example 185, (S)-N-(4-(4-fluoro-3-(trifluoromethyl)phenyl)-3,4-dihydro-2H-pyrano[3,2-b]pyridin-4-yl)-6-oxo-1,6-dihydropyridine-3-carboxamide], the IC50 is 0.089 µM.

As for `O=C(N[C@]1(c2ccc(-c3ccc(F)c(CO)c3)cc2)CCOc2cccnc21)c1ccc(F)cc1` [Example 122, (S)-4-fluoro-N-(4-(4′-fluoro-3′-(hydroxymethyl)-[1,1-biphenyl]-4-yl)-3,4-dihydro-2H-pyrano[3,2-b]pyridin-4-yl)benzamide], the IC50 stood at 1.52 µM.

`O=C(N[C@]1(c2ccc(OC(F)(F)F)c(F)c2)CCOc2cccnc21)c1cc(F)c(O)c(F)c1` [Example 207, (S)-3,5-difluoro-N-(4-(3-fluoro-4-(trifluoromethoxy)phenyl)-3,4-dihydro-2H-pyrano[3,2-b]pyridin-4-yl)-4-hydroxybenzamide]: the IC50 stood at 0.001 µM.

Turning to `Cn1ncc2cc(C(=O)N[C@]3(c4ccc(OC(F)(F)F)c(F)c4)CCOc4cccnc43)ccc21` [Example 53, (S)-N-(4-(3-fluoro-4-(trifluoromethoxy)phenyl)-3,4-dihydro-2H-pyrano[3,2-b]pyridin-4-yl)-1-methyl-1H-indazole-5-carboxamide], the IC50 worked out at 0.015 µM.

Consider `O=C(N[C@]1(c2ccc(C(F)(F)F)cc2)CCOc2cccnc21)c1ccc2[nH]c(=O)oc2c1` (single isomer, unassigned) [Example 20], for which the IC50 was found to be 0.01 µM.

On to `Cn1ncc2ccc(C(=O)N[C@]3(c4ccc(C(F)(F)F)cc4)CCOc4cccnc43)cc21` [Example 38, (S)-1-methyl-N-(4-(4-(trifluoromethyl)phenyl)-3,4-dihydro-2H-pyrano[3,2-b]pyridin-4-yl)-1H-indazole-6-carboxamide], for which the IC50 worked out at 0.02 µM.

Turning to `O=C(NC1(c2ccc(C(F)(F)F)nc2)CCOc2cccnc21)c1ccccc1` (centres unmarked) [Example 13, N-(4-(6-(trifluoromethyl)pyridin-3-yl)-3,4-dihydro-2H-pyrano[3,2-b]pyridin-4-yl)benzamide], the IC50 was 0.883 µM.

Consider `O=C(N[C@]1(c2ccc(OC(F)(F)F)cc2)CCOc2cccnc21)c1cc2n(n1)CCCO2` [Example 220, (S)-N-(4-(4-(trifluoromethoxy)phenyl)-3,4-dihydro-2H-pyrano[3,2-b]pyridin-4-yl)-6,7-dihydro-5H-pyrazolo[5,1-b] [1,3]oxazine-2-carboxamide formate], for which the IC50 was determined as 0.016 µM.

For the molecule `O=C(N[C@]1(c2ccc(OC(F)(F)F)c(F)c2)CCOc2cccnc21)N1CCCC1` [Example 104, (S)-N-(4-(3-fluoro-4-(trifluoromethoxy)phenyl)-3,4-dihydro-2H-pyrano[3,2-b]pyridin-4-yl)pyrrolidine-1-carboxamide], the IC50 came out at 0.085 µM.

For `COC(=O)c1c(C)cc(C(=O)N[C@]2(c3ccc(OC(F)(F)F)c(F)c3)CCOc3cccnc32)cc1C` [Example 181, (S)-methyl 4-((4-(3-fluoro-4-(trifluoromethoxy)phenyl)-3,4-dihydro-2H-pyrano[3,2-b]pyridin-4-yl)carbamoyl)-2,6-dimethylbenzoate], the half-inhibitory concentration (IC50) turned out to be 0.014 µM.

For `O=C(N[C@]1(c2ccc(C(F)(F)F)cc2)CCOc2cccnc21)c1ccn2ccnc2c1` [Example 49, (S)-N-(4-(4-(trifluoromethyl)phenyl)-3,4-dihydro-2H-pyrano[3,2-b]pyridin-4-yl)imidazo[1,2-a]pyridine-7-carboxamide], the IC50 amounted to 0.043 µM.

As to `O=S(=O)(N[C@]1(c2ccc(OC(F)(F)F)c(F)c2)CCOc2cccnc21)c1cccnc1` [Example 77, (S)—N-(4-(3-fluoro-4-(trifluoromethoxy)phenyl)-3,4-dihydro-2H-pyrano[3,2-b]pyridin-4-yl)pyridine-3-sulfonamide 2,2,2-trifluoroacetate], the IC50 was determined as 1.34 µM.

With `CNC(=O)c1ccc(C(=O)N[C@]2(c3ccc(OC(F)(F)F)c(F)c3)CCOc3cccnc32)cc1C` [Example 296, (S)—N4-(4-(3-fluoro-4-(trifluoromethoxy)phenyl)-3,4-dihydro-2H-pyrano[3,2-b]pyridin-4-yl)-N1,2-dimethylterephthalamide], the IC50 amounted to 0.008 µM.

As to `O=C(Nc1cccnc1)NC1(c2ccc(C(F)(F)F)cc2)CCCc2cccnc21` (centres unmarked) [Example 71, 1-(pyridin-3-yl)-3-(8-(4-(trifluoromethyl)phenyl)-5,6,7,8-tetrahydroquinolin-8-yl)urea], the IC50 is 0.143 µM.

Consider `O=C(N[C@]1(c2ccc(OC(F)(F)F)c(F)c2)CCOc2cccnc21)c1ccc(F)cn1` [Example 55, (S)-5-fluoro-N-(4-(3-fluoro-4-(trifluoromethoxy)phenyl)-3,4-dihydro-2H-pyrano[3,2-b]pyridin-4-yl)picolinamide], for which the IC50 amounted to 0.022 µM.

`COc1ccc2c(c1)C=C(C(=O)N[C@]1(c3ccc(OC(F)(F)F)cc3)CCOc3cccnc31)CO2` [Example 278, (S)-6-methoxy-N-(4-(4-(trifluoromethoxy)phenyl)-3,4-dihydro-2H-pyrano[3,2-b]pyridin-4-yl)-2H-chromene-3-carboxamide fonnate]: the IC50 worked out at 0.068 µM.

As for `N#Cc1cncc(-c2ccc([C@@]3(NC(=O)c4ccc(F)cc4)CCOc4cccnc43)cc2)c1` [Example 141, (S)-N-(4-(4-(5-cyanopyridin-3-yl)phenyl)-3,4-dihydro-2H-pyrano[3,2-b]pyridin-4-yl)-4-fluorobenzamide], the concentration for half-maximal inhibition (IC50) was found to be 0.26 µM.

Consider `O=C(N[C@]1(c2ccc(OC(F)(F)F)c(F)c2)CCOc2cccnc21)c1cscn1` [Example 198, (S)-N-(4-(3-fluoro-4-(trifluoromethoxy)phenyl)-3,4-dihydro-2H-pyrano[3,2-b]pyridin-4-yl) thiazole-4-carboxamide], for which the IC50 was 0.035 µM.

As to `O=C(O)c1c[nH]c(C(=O)N[C@]2(c3ccc(OC(F)(F)F)c(F)c3)CCOc3cccnc32)c1` [Example 334, (S)-5-((4-(3-fluoro-4-(trifluoromethoxy)phenyl)-3,4-dihydro-2H-pyrano[3,2-b]pyridin-4-yl)carbamoyl)-1H-pyrrole-3-carboxylic acid], the IC50 was found to be 1.01 µM.

As to `Cn1cc(C(=O)N[C@]2(c3ccc(OC(F)(F)F)c(F)c3)CCOc3cccnc32)cc1C(=O)O` [Example 299, (S)-4-((4-(3-fluoro-4-(trifluoromethoxy)phenyl)-3,4-dihydro-2H-pyrano[3,2-b]pyridin-4-yl)carbamoyl)-1-methyl-1H-pyrrole-2-carboxylic acid], the IC50 was 0.115 µM.

On to `O=C(N[C@]1(c2ccc(OC(F)(F)F)cc2)CCOc2cccnc21)c1cnc2ccccc2c1` [Example 252, (S)-N-(4-(4-(trifluoromethoxy)phenyl)-3,4-dihydro-2H-pyrano[3,2-b]pyridin-4-yl)quinoline-3-carboxamide formate], for which the IC50 was 0.024 µM.

As to `O=C(N[C@]1(c2ccc(OC(F)(F)F)cc2)CCOc2cccnc21)c1cccc(N2CCCC2=O)c1` [Example 277, (S)-3-(2-oxopyrrolidin-1-yl)-N-(4-(4-(trifluoromethoxy)phenyl)-3,4-dihydro-2H-pyrano[3,2-b]pyridin-4-yl)benzamide formate], the IC50 was 0.085 µM.

In the case of `CC(=O)Nc1ccc(C(=O)N[C@]2(c3ccc(C(F)(F)F)cc3)CCOc3cccnc32)nc1` [Example 43, (S)-5-acetamido-N-(4-(4-(trifluoromethyl)phenyl)-3,4-dihydro-2H-pyrano[3,2-b]pyridin-4-yl)picolinamide], the IC50 worked out at 0.111 µM.

In the case of `O=C(N[C@]1(c2ccc(-c3ccoc3)cc2)CCOc2cccnc21)c1ccc(F)cc1` [Example 145, (S)-4-fluoro-N-(4-(4-(furan-3-yl)phenyl)-3,4-dihydro-2H-pyrano[3,2-b]pyridin-4-yl)benzamide], the IC50 amounted to 0.07 µM.
